Results as given in patent publication US11311568B2, “Therapeutic pharmaceutical composition for cancer including miRNA” (Purmx Therapeutics, Inc., priority 2017, dated 2022).

Columns and labels:
[1] = test system: malignant pleural mesothelioma cell strain EHMES-10; experiment: Cell growth inhibition, cell count after transfection; format: cell-based; conditions: EHMES-10, final concentration 10 nM, four days after transfection, FIG. 7
Method: (§1) Among the above four miRNAs, miR-3140-3p which had particularly high cell growth inhibition effect was transfected in each of malignant pleural mesothelioma cell strains (MSTO-211H and EHMES-10), uterine sarcoma cell strain (MES-SA), and osteosarcoma cell strain (U2-OS), and cell proliferation was observed. […] Transfection was carried out with the following protocol.
(§2) 1: To a 35 mm dish were added 500 μL of serum free medium (SFM) and 5 μL of RNAiMAX (Invitrogen).
(§3) 2: To the solution from 1 was added 1 μL each of miR-Control or miR-3140-3p, miR-22-3p, and miR-34a-5p (stock conc. 20 μM) (final concentration 10 nM).
(§4) 3: This was incubated at room temperature for 20 minutes.
(§5) 4: 1.5 mL of a cell suspension diluted to 6.7×10^4 cells/mL was added to the 35 mm dish.
(§6) 5: This was incubated at 37° C. under 5% CO2 condition.
(§7) 6: The cells were counted four days after transfection.

[2] = test system: malignant pleural mesothelioma cell strain MSTO-211H; experiment: as above; format: cell-based; conditions: final concentration 10 nM, four days after transfection, FIG. 6
Method: as §1, §2, §3, §4, §5, §6, §7

[3] = test system: osteosarcoma cell strain U2-OS; experiment: as above; format: cell-based; conditions: final concentration 10 nM, four days after transfection, FIG. 9
Method: as §1, §2, §3, §4, §5, §6, §7

[4] = test system: uterine sarcoma cell strain MES-SA; experiment: as above; format: cell-based; conditions: final concentration 10 nM, four days after transfection, FIG. 8
Method: as §1, §2, §3, §4, §5, §6, §7

[5] = test system: breast cancer stem cell strain (MDA-MB231-luc-D3H2LN cells); experiment: as above; format: cell-based; conditions: final concentration 12.5 nM, four days after transfection, FIG. 10 top
Method: miR-3140-3p was transfected in a highly metastatic cancer cell strain of breast cancer (MDA-MB231-luc-D3H2LN cells), and cell proliferation was observed. […] Transfection was carried out with the following protocol.
as §2
2: To the solution from 1 was added 12.5 μL each of miR-Control or miR-3140-3p, miR-22-3p, and miR-34a-5p (stock conc. 2 μM) (final concentration 12.5 nM).
as §4, §5, §6, §7

[6] = test system: lung cancer cell strain (A549); experiment: as above; format: cell-based; conditions: A549, final concentration 10.0 nM, six days after transfection, FIG. 11
Method: miR-3140-3p was transfected into lung cancer cell strain (A549), and cell proliferation was observed. […] Transfection was carried out with the following protocol.
as §2
2: To the solution from 1 was added 1 μL each of miR-Control or miR-3140-3p, miR-22-3p, and miR-34a-5p (stock conc. 20 μM) (final concentration 10.0 nM).
as §4, §5, §6
6: The cells were counted six days after transfection.

[7] = test system: malignant pleural mesothelioma cell strain EHMES-10; experiment: Antitumor effect in vivo, intrathoracic orthotopic transplantation model mouse; design: species or system mice (C-B-17/Icr-scid/scid Jcl)
Method: The tumor suppression effect of miR-3140-3p in vivo was investigated with intrathoracic orthotopic transplantation model mouse.
Six weeks-old male mice (C-B-17/Icr-scid/scid Jcl) were used as mice. Malignant pleural mesothelioma cell strain EHMES-10 which expresses the luciferase gene was used as the tumor cell.
The experiment protocol is shown below.
1: Mice were intraperitoneally administered 0.1 mL per 10 g of body weight of a mixed anesthetic drug of medetomidine hydrochloride, midazolam, and butorphanol tartrate.
2: After anesthesia, mouse chest hair was shaved, and an incision was made in the epidermis with scissors.
3: In the mouse pleural cavity 100 μL of tumor cells (3×10^7 cells/mL) was transplanted with a 27 G syringe for insulin.
4: Three days after transplantation, imaging of tumor cells was performed with IVIS Spectrum CT In vivo Imaging System.
5: After imaging, grouping was performed with successfully transplanted mice.
6: Mice were intraperitoneally administered 0.1 mL per 10 g of body weight of a mixed anesthetic drug of medetomidine hydrochloride, midazolam, and butorphanol tartrate to anesthetize the mice.
7: After anesthesia, 100 μL of miRNA/A6K mixture was administered in the mouse pleural cavity.
8: Imaging was performed every week from the first imaging, and tumor expansion was observed.
9: The time and date of death of the mice was recorded, and mice survival rate was calculated.
The mixed anesthetic drug of medetomidine hydrochloride, midazolam, and butorphanol tartrate was prepared as in Table 4 below. The miRNA/A6K mixture was prepared as in Table 5. Moreover, the control group was administered the RNA shown in Table 6 instead of the miRNA of the present invention.
Note that in order to improve expression efficiency, miRNA was administered as a double-strand in combination with a complementary strand comprising partial mismatch.

[8] = test system: malignant pleural mesothelioma cell EHMES-10; experiment: Calculation of IC50 value, cell survival with Cell Counting Kit 8; format: cell-based; conditions: five days after transfection
Method: The IC50 value of miR-3140-3p was calculated with malignant pleural mesothelioma cell EHMES-10.
The protocol therefor is shown below.
1: To 25 μL of serum free medium (SFM) was added 0.25 μL of RNAiMAX (Invitrogen).
2: miR-Control and miR-3140-3p were serially diluted so that the final concentrations will be 40 nM, 20 nM, 10 nM, 5 nM, 1 nM, 500 pM, 100 pM, 50 pM, 10 pM, 5 pM, and 1 pM, and mixed with SFM/RNAiMAX complex.
as §4
4: 75 μL of each of cells at 6.7×10^4 cells/mL were added to each well.
as §6
6: Five days after transfection, the survival rates of cells were investigated with Cell Counting Kit 8 (DOJINDO). The protocol therefor is shown below.
(i) Cell Counting Kit was diluted 10-folds with a medium.
(ii) 200 μL of each of the diluted Cell Counting Kit was added to each well.
(iii) This was incubated at 37° C. under 5% CO2 condition for 1 hour.
(iv) The values at 450 nm/600 nm were measured with a plate reader.
Note that the same control RNA as that used in Experiment 7 was employed as the control.

miR-3140-3p: Mature-miRNA, AGCUUUUGGGAAUUCAGGUAGU (SEQ ID NO. 2) (listed as RNA, chemistry not given here; listed as Homo sapiens)
cell growth inhibition effect (cell count) [1]: extremely high cell growth inhibition effect compared to prior art miR-22-3p and miR-34a-5p
cell growth inhibition effect (cell count) [2]: extremely high cell growth inhibition effect compared to prior art miR-22-3p and miR-34a-5p
cell growth inhibition effect (cell count) [3]: extremely high cell growth inhibition effect compared to prior art miR-22-3p and miR-34a-5p
cell growth inhibition effect (cell count) [4]: extremely high cell growth inhibition effect compared to prior art miR-22-3p and miR-34a-5p
cell growth inhibition effect (cell count) [5]: extremely high cell growth inhibition effect
cell growth inhibition effect (cell count) [6]: extremely high cell growth inhibition effect
tumor reduction by imaging ([7]; one administration of miRNA/A6K in pleural cavity, 3.2 nmol (45 μg) per mouse, Day 10 to Day 24 after transplantation, FIG. 20): tumor reduction was seen
tumor expansion (imaging results digitized) ([7]; one administration of miRNA/A6K in pleural cavity, FIG. 21): significantly suppressed tumor expansion
survival rates of mice ([7]; one administration of miRNA/A6K in pleural cavity, FIG. 22): survival rates of mice had improved
survival rates of mice ([7]; three administrations of miRNA/A6K in pleural cavity, FIG. 28): more improved
suppression of malignant pleural mesothelioma (imaging, survival) ([7]; three administrations of miRNA/A6K in pleural cavity, FIGS. 26-28): significantly suppressed malignant pleural mesothelioma
suppression of malignant pleural mesothelioma (imaging, survival) ([7]; two administrations of miRNA/A6K in pleural cavity, FIGS. 23-25): significantly suppressed malignant pleural mesothelioma
growth inhibition effect (survival rates of cells, Cell Counting Kit 8) ([8]; EHMES-10, 1 pM to 40 nM, FIG. 29): growth inhibition effect against malignant pleural mesothelioma cell strain EHMES-10 even at a very low concentration
IC50 ([8]; EHMES-10, final concentration, Cell Counting Kit 8): 0.57 nM
